Here are results for 77 molecules from PubChem BioAssay AID1259332 (Broad Institute, 2017).

Calls of active or inactive are those of the source. How the calls were made is not given here.

The test system of the test is B cell line, CD40 signaling inhibition reporter. The test can be described thus: CD40 pathway inhibition in B cells – B cell lineage, dose response (AID 1259332).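 Further: cells stimulated with CD40 ligand tCD40L.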
One may read the AC50 as the concentration giving half of the maximal activity seen. Take `COc1cccc(S(=O)(=O)N(C)C[C@@H]2OCc3ccccc3-c3c(n(C)c4ccccc34)C(=O)N([C@H](C)CO)C[C@H]2C)c1`: the AC50 was > 20 µM (inactive). The value for `O=C(NC(=S)/C(=C1\CCCCCN1)[N+](=O)[O-])c1ccccc1` was 3.07 µM; that for `CCCCCN1C=CC(=C2C(=O)c3ccccc3C2=O)C=C1` was 0.127 µM. Next, `O=C(C[C@@H]1CC[C@@H]2[C@H](COC[C@H](O)CN2Cc2cc(F)ccc2F)O1)NCc1ccc(Oc2ccccc2)cc1`: 6.77 µM; `C[C@@H]1CN([C@@H](C)CO)C(=O)c2c(c3ccccc3n2C)-c2ccccc2CO[C@@H]1CN(C)C(=O)c1cc(Cl)cc(Cl)c1`: > 20 µM (inactive); `O=C(Nc1ccccn1)c1ccc(-c2ccccc2)cc1`: 2.35 µM. Next, `COc1cc(C(=O)CCN2CCC(c3ccccc3)C2)cc(OC)c1OC` (configuration not stated): 5.51 µM; `C[C@@H]1CN([C@H](C)CO)C(=O)c2cc(NC(=O)Nc3cccc4ccccc34)ccc2O[C@@H](C)CCCCO[C@H]1CN(C)Cc1ccc(C(F)(F)F)cc1`: 1.91 µM; `Clc1ccc(C(Cn2ccnc2)OCc2ccsc2Cl)c(Cl)c1` (configuration not stated): 6.04 µM. Regarding `CCC(=O)NC(c1ccccc1OC)c1ccc2cccnc2c1O` (configuration not stated), the AC50 was 8.63 µM. Next, `C1CCC(C(CC2CCCCN2)C2CCCCC2)CC1` (configuration not stated): 2.39 µM; `CCN(CC)c1ccc(C(NC(=O)C(C)C)c2ccc3cccnc3c2O)cc1` (configuration not stated): > 20 µM (inactive). The value for `Cc1cnc(NC(=O)c2ccc(OCC3CCCO3)cc2)s1` (configuration not stated) was 3.03 µM; that for `Cc1ccc(S(=O)(=O)C=CS(=O)(=O)c2ccc(C)cc2)cc1` was 0.996 µM; that for `O=C(Nc1ccccc1)N1CC(=O)N2[C@H](CO)[C@@H](c3ccc(C#CC4CCCCC4)cc3)[C@H]2C1` was 11 µM.

Turning to `C[C@H]1CN([C@@H](C)CO)C(=O)c2c(c3ccccc3n2C)-c2ccccc2CO[C@H]1CN(C)C(=O)Nc1cccc(C(F)(F)F)c1`, the AC50 is 8.34 µM. Next, `COc1ccc2c3c([nH]c2c1)[C@H](CO)N(C(=O)Nc1ccc(F)cc1)CC31CN(Cc2cc(F)ccc2F)C1`: > 20 µM (inactive).

As to `N#C[C@@H]1[C@H](c2ccc(C#Cc3ccccc3F)cc2)[C@@H](CO)N1C(=O)C1CC1`, the AC50 was 1.59 µM. As for `O=C(COC(=O)c1ccccc1C(=O)c1ccc(Cl)c([N+](=O)[O-])c1)NC1CC1`, the half-maximal activity concentration (AC50) was 1.62 µM. In the case of `N#C[C@@H]1[C@H](c2ccc(C#CC3CCCC3)cc2)[C@@H](CO)N1C(=O)Nc1ccc(F)cc1`, the AC50 is > 20 µM (inactive).

Consider `CC[C@@]1(O)C(=O)OCc2c1cc1n(c2=O)Cc2cc3ccccc3nc2-1`, for which the AC50 was 0.961 µM. Turning to `O=C(Nc1cccc(N2C(=O)C=CC2=O)c1)c1cccs1`, the AC50 is 1.68 µM.

Turning to `CC(C)(C)[C@H](N)C(=O)N[C@H]1CCC2C3CC=C4C[C@@H](O)CC[C@]4(C)C3CC[C@@]21C` (some centres not stated), the AC50 was 5.04 µM. Take `CC1=NNC(=O)C1Br` (configuration not stated): the AC50 was 7.86 µM. `C[C@@H]1CN([C@@H](C)CO)C(=O)c2cc(C#CCc3ccccc3)cnc2O[C@@H]1CN(C)C(=O)C1CCOCC1`: the AC50 is 7.23 µM. Consider `COc1cc2cc(C(=O)N3CC(COS(C)(=O)=O)c4ccc(O)cc43)[nH]c2c(OC)c1OC` (configuration not stated), for which the AC50 was 0.00741 µM. Regarding `O=C(C1CC1)N1C[C@@H]2N[C@H](C1)[C@@H]2c1ccc(-c2ccncc2)cc1`, the AC50 is 5.72 µM.

As for `CCC(=O)O[C@]1(C(=O)CCl)[C@@H](C)C[C@H]2[C@@H]3CCC4=CC(=O)C=C[C@]4(C)[C@@]3(F)[C@@H](O)C[C@@]21C`, the AC50 is > 20 µM (inactive). Next, `C[C@@H]1CN([C@@H](C)CO)C(=O)Cc2cc(NS(=O)(=O)c3ccc(F)cc3)ccc2O[C@H]1CN(C)Cc1ccc(C(F)(F)F)cc1`: 3.75 µM; `C[C@@H]1CCCCO[C@H](CN(C)CC2CCCCC2)[C@H](C)CN([C@@H](C)CO)C(=O)c2cc(NC(=O)Nc3ccc(C(F)(F)F)cc3)ccc2O1`: 8.6 µM; `C[C@H]1CN([C@@H](C)CO)C(=O)c2cccc(NC(=O)Nc3ccc(F)cc3)c2O[C@H]1CN(C)S(=O)(=O)c1ccc(Cl)cc1`: 4.87 µM. Consider `Fc1ccccc1CNCCC(Cc1ccccc1)c1ccc2c(c1)OCO2` (configuration not stated), for which the AC50 was 5.98 µM.

In the case of `C[C@@H]1CN([C@H](C)CO)C(=O)c2cc(NS(=O)(=O)c3cccs3)ccc2O[C@@H](C)CCCCO[C@H]1CN(C)Cc1ccc(Cl)c(Cl)c1`, the AC50 is > 20 µM (inactive). Next, `COc1ccc(S(=O)(=O)Nc2ccc3c(c2)C(=O)N([C@H](C)CO)C[C@@H](C)[C@@H](CN(C)Cc2ccc(C(F)(F)F)cc2)OCCCC[C@H](C)O3)cc1`: 6.77 µM; `COC(=O)C1=C(C(=O)OC)C(C(=O)OC)C(C(=O)OC)C(C(=O)OC)(C(=O)OC)C(C(=O)OC)=C1C(=O)OC` (configuration not stated): 3.44 µM. The value for `C[C@@H]1CCCCO[C@H](CN(C)Cc2ccc(C(F)(F)F)cc2)[C@@H](C)CN([C@@H](C)CO)C(=O)c2cc(NC(=O)Nc3cccc4ccccc34)ccc2O1` was > 20 µM (inactive); that for `O=C(COc1cccnc1[N+](=O)[O-])c1ccc(Cl)s1` was 3.2 µM; that for `N#C[C@@H]1[C@H](c2ccc(C#Cc3ccc(F)cc3)cc2)[C@@H](CO)N1C(=O)C1CCC1` was 4.71 µM. Next, `Cc1cc(C)nc(Sc2ncnc(N)c2[N+](=O)[O-])n1`: 2.63 µM; `CC(=O)O[C@@H]1C[C@@]2(C)[C@H](c3ccoc3)C[C@H]3O[C@]32[C@]2(C)C(=O)C(=O)C3C(C)(C)C(=O)C=C[C@]3(C)C12` (some centres not stated): 1.22 µM. As for `CC1OC(OC2CC(O)C3(CO)C4C(O)CC5(C)C(C6=CC(=O)OC6)CCC5(O)C4CCC3(O)C2)C(O)C(O)C1O` (configuration not stated), the AC50 is 0.405 µM. Next, `Cc1[nH]c2ccccc2c1C(c1ccccn1)N1CCC(C(N)=O)CC1` (configuration not stated): 9.34 µM; `CC1CC(C)(C)Nc2ccc(OC(=O)c3ccco3)cc21` (configuration not stated): 3.23 µM; `C[C@@H]1O[C@@H](O[C@H]2C[C@@H](O)[C@]3(CO)[C@H]4[C@H](O)C[C@]5(C)[C@@H](C6COC(=O)C6)CC[C@]5(O)[C@@H]4CC[C@]3(O)C2)[C@H](O)[C@H](O)[C@H]1O` (some centres not stated): 2.55 µM. The value for `C[C@H](CO)N1C[C@H](C)[C@H](CN(C)S(=O)(=O)c2ccc(Cl)cc2)Oc2c(NC(=O)Nc3ccc(F)cc3)cccc2C1=O` was 6.47 µM. The value for `COc1ccc(CN(CCC(c2ccccc2)c2ccc(OC(C)C)cc2)C(=O)CCl)cc1OC` (configuration not stated) was 1.68 µM; that for `Oc1ccc2c(c1)OCC1(O)Cc3cc(O)c(O)cc3C21` (configuration not stated) was 2.81 µM. Take `O=C(COC(=O)c1ccccc1)c1ccc2c(c1)OCCO2`: the AC50 was 0.926 µM. Next, `c1ccc(OCCSc2nnc3sc4ccccc4n23)cc1`: 4.7 µM; `C[C@H]1O[C@@H](O[C@H]2[C@@H](O)C[C@H](O[C@H]3[C@@H](O)C[C@H](O[C@H]4CC[C@]5(C)C6C[C@@H](O)[C@]7(C)[C@@H](C8=CC(=O)OC8)CC[C@]7(O)C6CC[C@@H]5C4)O[C@@H]3C)O[C@@H]2C)C[C@H](O)[C@@H]1O` (some centres not stated): 2.59 µM; `O=S(=O)(CCSc1ccccn1)c1nc2ccccc2s1`: 8.22 µM.

As for `CC=Cc1cc2c(c(=O)o1)C(=O)C(O)C(C)O2` (configuration not stated), the AC50 was > 20 µM (inactive). The value for `Cc1ccccc1C(=O)N1CCC(C(=O)Nc2nc3ccc(F)cc3s2)CC1` was 8.19 µM; that for `COc1ccc(/C=C\c2nc(=O)c3ccccc3o2)cc1` was 7.67 µM. Take `C[C@H]1CN([C@@H](C)CO)C(=O)c2c(c3ccccc3n2C)-c2ccccc2CO[C@@H]1CN(C)C(=O)Nc1cccc(C(F)(F)F)c1`: the AC50 is 11.1 µM. The value for `C=C1CC(Cn2cc(Br)c(=O)[nH]c2=O)(c2ccc(-c3ccccc3)cc2)OC1=O` (configuration not stated) was 1.07 µM; that for `NC(=O)c1c(Br)n(C2OC(CO)C(O)C2O)c2ncnc(N)c12` (configuration not stated) was 3.84 µM. The value for `C[C@@H]1CN([C@@H](C)CO)C(=O)c2ccccc2-c2ccccc2CO[C@H]1CN(C)Cc1ccccc1C(F)(F)F` was 8.01 µM; that for `Oc1c(Cl)cc(Cl)c(Cl)c1Cc1c(O)c(Cl)cc(Cl)c1Cl` was 3.6 µM. The value for `COC(=O)C12OCC34C(CC5C(C)=C(O)C(=O)CC5(C)C3C(O)C1O)OC(=O)C(OC(=O)C=C(C)C)C24` (configuration not stated) was 0.479 µM. On to `C[C@@H]1CN([C@H](C)CO)C(=O)c2ccccc2-c2ccccc2CO[C@@H]1CN(C)C(=O)c1cc(Cl)cc(Cl)c1`, for which the AC50 is 7.99 µM. The value for `OC(c1cc(-c2cccc(Cl)c2)nc2ccccc12)C1CCCCN1` (configuration not stated) was 4.14 µM.

For the molecule `O=C(C#Cc1ccccc1)c1ccccc1`, the AC50 was 6.37 µM. Take `CC1Cc2ccccc2N1c1ncnc(N)c1[N+](=O)[O-]` (configuration not stated): the AC50 was 7.92 µM. Turning to `Cc1cc(OCC(=O)OCC(=O)NCc2ccco2)ccc1Cl`, the AC50 was 9.63 µM. Turning to `O=[N+]([O-])c1ccc(N2CCOCC2)c2c1no[n+]2[O-]`, the AC50 is 1.76 µM. In the case of `Cc1ccccc1-c1ccc2c(c1)O[C@@H](CN(C)C(=O)Nc1ccc(C(F)(F)F)cc1)[C@@H](C)CN([C@@H](C)CO)S2(=O)=O`, the AC50 is 10.5 µM.

On to `CC12CCC3C(CCC4(O)CC(O)CCC34C=NO)C1(O)CCC2C1=COC(=O)C1` (configuration not stated), for which the AC50 is 0.586 µM. The value for `COc1ccc(S(=O)(=O)N(C)C[C@H]2Oc3ccc(NC(=O)Nc4ccc(C(F)(F)F)cc4)cc3C(=O)N([C@@H](C)CO)C[C@H]2C)cc1` was > 20 µM (inactive).

On to `Nc1ccc(-c2cccc3c(=O)cc(N4CCOCC4)oc23)cc1`, for which the AC50 is 10.9 µM. Regarding `CC(C)c1c(O)ccc2c1CCC1C(C)(C)CCC[C@]21C` (some centres not stated), the AC50 is 5.44 µM. The value for `C[n+]1c(-c2ccccc2)cc2c(=Cc3ccc([N+](=O)[O-])cc3)c3ccccc3n21` was 3.93 µM; that for `CC1CC(C)CC(C)C(O)C(C#N)=CC=CCC(C2CCCC2C(=O)O)OC(=O)CC(O)C(C)C1` (configuration not stated) was under 0.0005 µM; that for `Oc1c(Cl)cc(Cl)cc1Sc1cc(Cl)cc(Cl)c1O` was 7.67 µM. Next, `COc1ccc2c3c([nH]c2c1)[C@H](CO)N(C(=O)Nc1cccc(F)c1)CC31CCN(S(=O)(=O)c2cccc(C)c2)CC1`: > 20 µM (inactive). The value for `O=C(OC1CCOC1=O)c1ccccc1C(=O)c1ccc(Cl)c([N+](=O)[O-])c1` (configuration not stated) was > 20 µM (inactive); that for `COc1ccc(-c2cc(-c3ccccc3)c(C#N)c(S(C)=O)n2)cc1` (configuration not stated) was 2.55 µM.
